Measured values taken from the supplement of paper PMC10307832.

Experiments:
Assay in all cases: relative viability (nuclei count vs DMSO), 5 days (fraction); higher = more cells survive
Tosedostat + Olaparib = compound: CC(C)C[C@@H](C(=O)N[C@H](C(=O)OC1CCCC1)c1ccccc1)[C@H](O)C(=O)NO [Tosedostat] + O=C(c1cc(Cc2n[nH]c(=O)c3ccccc23)ccc1F)N1CCN(C(=O)C2CC2)CC1 [Olaparib] (partner 8 µM)
Outline: (§1)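 Relative viability was taken as the ratio of nuclei in treated wells to nuclei in vehicle wells. Lung cancer cell lines in 1536-well plates received compounds by pin tool one day after seeding, either one drug alone or a fixed anchor-drug dose plus five library-drug doses (not always all listed) in √10 steps. Nuclei were counted on 4× images after 5 days of treatment, and values are medians of duplicate plates.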

[1] = compound: CC1=NN=C(O1)C2=NN=C(C=C2)N3CCC(CC3)OC4=C(C=CC(=C4)F)Cl + C[C@@H](Oc1cc(-c2cnn(C3CCNCC3)c2)cnc1N)c1c(Cl)ccc(F)c1Cl [Crizotinib] (partner 1 µM)
Outline: as §1

[2] = compound: CC1=NN=C(O1)C2=NN=C(C=C2)N3CCC(CC3)OC4=C(C=CC(=C4)F)Cl + COc1cccc2cc(-c3nc([C@H]4CC[C@H](C(=O)O)CC4)n4ncnc(N)c34)[nH]c12 [OSI-027] (partner 0.5 µM)
Outline: as §1

[3] = compound: CC1=NN=C(O1)C2=NN=C(C=C2)N3CCC(CC3)OC4=C(C=CC(=C4)F)Cl + CC(=O)Nc1cccc(-n2c(=O)n(C3CC3)c(=O)c3c(Nc4ccc(I)cc4F)n(C)c(=O)c(C)c32)c1 [Trametinib] (partner 0.02 µM)
Outline: as §1

Cell Line | relative viability (Tosedostat + Olaparib; first compound 0.02 µM) | relative viability (Tosedostat + Olaparib; first compound 0.06325 µM) | relative viability (Tosedostat + Olaparib; first compound 0.2 µM) | relative viability (Tosedostat + Olaparib; first compound 0.6325 µM) | relative viability (Tosedostat + Olaparib; first compound 2 µM) | relative viability ([1]; first compound 0.253 µM) | relative viability ([1]; first compound 0.8 µM) | relative viability ([1]; first compound 2.53 µM) | relative viability ([1]; first compound 8 µM) | relative viability ([2]; first compound 0.253 µM) | relative viability ([2]; first compound 0.8 µM) | relative viability ([2]; first compound 2.53 µM) | relative viability ([2]; first compound 8 µM) | relative viability ([3]; first compound 0.253 µM) | relative viability ([3]; first compound 0.8 µM) | relative viability ([3]; first compound 2.53 µM) | relative viability ([3]; first compound 8 µM)
NCI-H322M | 0.746 | 0.713 | 0.67 | 0.532 | 0.635 | 0.762 | 0.792 | 0.899 | 0.886 | 0.513 | 0.492 | 0.636 | 0.516 | 0.563 | 0.487 | 0.477 | 0.52
LCLC-97TM1 | 0.335 | 0.436 | 0.309 | 0.236 | 0.251 | 0.262 |  | 0.442 | 0.327 | 0.523 | 0.391 | 0.472 | 0.508 | 0.175 |  | 0.191 | 0.148
EPLC-272H | 0.879 | 0.711 | 0.557 | 0.471 | 0.293 | 0.877 |  | 0.926 | 1.03 | 0.283 | 0.248 | 0.26 | 0.298 | 0.267 | 0.247 | 0.291 | 0.309
NCI-H2023 | 0.509 | 0.424 | 0.332 | 0.348 | 0.372 | 0.453 | 0.493 | 0.455 | 0.441 | 0.33 | 0.35 | 0.35 | 0.314 | 0.36 | 0.419 | 0.388 | 0.301
NCI-H460 | 0.424 | 0.438 | 0.392 | 0.326 | 0.388 | 0.359 | 0.301 | 0.311 | 0.296 | 0.319 | 0.302 | 0.137 | 0.0418 | 0.0953 | 0.176 | 0.175 | 0.15
NCI-H647 | 0.799 | 0.446 | 0.506 | 0.376 | 0.51 | 0.664 | 0.691 | 0.726 | 0.528 | 0.516 | 0.423 | 0.453 | 0.207 | 0.287 | 0.5 | 0.45 | 0.297
NCI-H2170 | 0.579 | 0.513 | 0.686 | 0.574 | 0.613 | 0.553 | 0.573 | 0.638 | 0.449 | 0.486 | 0.485 | 0.654 | 0.489 | 0.377 | 0.392 | 0.368 | 0.356
NCI-H358 | 0.547 | 0.679 | 0.438 | 0.229 | 0.211 | 0.522 | 0.403 | 0.509 | 0.466 | 0.635 | 0.461 | 0.561 | 0.514 | 0.131 | 0.137 | 0.146 | 0.124
SW 1573 | 0.493 | 0.42 | 0.363 | 0.372 | 0.281 | 0.777 | 0.827 | 0.795 | 0.664 | 0.643 | 0.52 | 0.562 | 0.4 | 0.512 | 0.43 | 0.445 | 0.306
CAL-12T | 0.769 | 0.658 | 0.588 | 0.59 | 0.549 | 0.552 | 0.602 | 0.728 | 0.506 | 0.54 | 0.705 | 0.668 | 0.513 | 0.337 | 0.313 | 0.255 | 0.217
